These compounds were tested against Glycogen synthase kinase-3 beta (Homo sapiens, UniProt P49841) (assay: Inhibitory concentration against human Glycogen synthase kinase-3).
Glycogen synthase kinase-3 beta, sequence (P49841 whole entry): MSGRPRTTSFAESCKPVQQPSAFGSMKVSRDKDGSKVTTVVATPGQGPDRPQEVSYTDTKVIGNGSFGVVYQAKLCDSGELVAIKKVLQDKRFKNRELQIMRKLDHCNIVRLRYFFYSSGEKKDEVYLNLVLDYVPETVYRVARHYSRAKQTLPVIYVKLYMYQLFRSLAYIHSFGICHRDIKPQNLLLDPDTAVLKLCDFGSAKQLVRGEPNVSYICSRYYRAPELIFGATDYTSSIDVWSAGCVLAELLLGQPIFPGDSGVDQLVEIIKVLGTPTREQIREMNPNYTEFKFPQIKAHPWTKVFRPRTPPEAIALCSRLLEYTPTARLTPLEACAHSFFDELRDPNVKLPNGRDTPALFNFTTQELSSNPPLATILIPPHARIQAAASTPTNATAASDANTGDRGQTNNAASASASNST
In the case of O=C(O)c1cccc(CSc2nnc(-c3ccncc3)o2)c1, the IC50 is reported as 235 µM. O=C(O)Cc1ccc(CSc2nnc(-c3ccncc3)s2)cc1 showed an IC50 of 11 µM. Work on O=C(O)c1ccc(CSc2nnc(-c3ccncc3)o2)cc1 yielded an IC50 of 29 µM. With O=C(Cc1ccc(CSc2nnc(-c3ccncc3)o2)cc1)NCCc1ccccc1F the IC50 was 1.2 µM. Compound Ic1ccc(CSc2nnc(-c3ccncc3)o2)cc1 has an IC50 of 198 µM. With COC(=O)c1cccc(CSc2nnc(-c3ccncc3)o2)c1 the IC50 was 1.1 µM. Fc1cccc(CSc2nnc(-c3ccncc3)o2)c1 showed an IC50 of 1.4 µM. In the case of Cc1nc(-c2cccc(CSc3nnc(-c4ccncc4)o3)c2)no1, the IC50 is reported as greater than 250 µM. O=C(O)Cc1ccc(CSc2nnc(-c3ccccn3)s2)cc1 gave an IC50 greater than 250 µM. O=C(O)Cc1ccc(CSc2nnc(-c3cccnc3)s2)cc1 gave an IC50 greater than 250 µM. In the case of Clc1ccccc1CSc1nnc(-c2ccncc2)o1, the IC50 is reported as 12 µM. Clc1cccc(CSc2nnc(-c3ccncc3)o2)c1 showed an IC50 of 0.82 µM. Compound c1ccc(CCSc2nnc(-c3ccncc3)o2)cc1 has an IC50 of 29 µM. c1ccc(CSc2nnc(-c3ccncc3)o2)cc1 showed an IC50 of 6.7 µM. In the case of O=C(O)Cc1ccc(CSc2n[nH]c(-c3ccncc3)n2)cc1, the IC50 is reported as greater than 250 µM. Compound O=C(O)Cc1ccc(CSc2nnc(-c3ccncc3)o2)cc1 has an IC50 of 8 µM.
